For 18 molecules, DC50, Dmax and IC50 results are on record in US20260000676A1, “CHROMAN DERIVATIVES AS ESTROGEN RECEPTOR DEGRADERS” (THE REGENTS OF THE UNIVERSITY OF MICHIGAN, priority 2022, published 2026).

What is called DC50 is the concentration giving 50% degradation. Lower therefore signals a more potent degrader. By Dmax is commonly meant the greatest extent of degradation seen. Higher therefore signals a fuller loss of target. By IC50 is commonly meant the point on the concentration scale where inhibition reaches its midpoint.

Where a name gives a salt, the structure may show the parent alone.

Assay [1] deals with T1, ER (Homo sapiens (Human), UniProt P03372). In words: In-cell western (ICW) ER degradation assay in MCF-7 cells. Type of assay: cell-based. Conditions: MCF7, 16 hrs; for DC50: ER degradation; for Dmax: MCF7, maximal ER degradation.
The target of a further assay is CRBN/DDB1 (Homo sapiens (Human), UniProt Q96SW2). In words: HTRF binding assay to CRBN/DDB1. The conditions noted are these: read-out: CRBN HTRF IC50. How it is done:
The binding potency was determined using HTRF assay technology (Perkin Elmer). Compounds were serially diluted in DMSO and 0.2 μL volume was transferred to white 384-well plate.
For orientation: In TR-FRET formats the signal depends on donor and acceptor labels being close together.

Assay [2] deals with T1, ER. In words: In-cell western (ICW) ER degradation assay in T47D cells. Format: cell-based. The conditions noted are these: 16 hrs; for DC50: ER degradation; for Dmax: maximal ER degradation. How it is done: ERa degradative activity of compounds can be assessed in MCF-7 and T47D Cells. MCF-7 and T47D cell are seeded and are subsequently treated with the compounds at certain concentrations (e.g., 0.02 to 300 nM). DMSO can be used as vehicle control. Cells are fixed and are blocked with Intercept (PBS) Blocking Buffer (e.g., Li-COR, Odyssey Blocking Buffer), and are stained with ER (e.g., 1:500, Cell signaling) primary antibody for overnight at cold room. Secondary Antibody (e.g., IRDye 800CW Goat anti-Rabbit IgG) and CellTag 700 Stain are added in Intercept (PBS) Blocking Buffer. Finally, cell plate is placed in incubator to dry. Image and signal are captured on Odyssey® DLx Imaging System.
Day 3: After 16 hrs of compounds treatment, cells were fixed by 4% PFA and permeabilized with elution buffer (0.1% Triton X-100 in 1% PBS Solution). Subsequently, cells were blocked with Intercept (PBS) Blocking Buffer (Li-COR, Odyssey Blocking Buffer), and were stained with ER (1:500, Cell signaling) primary antibody for overnight at cold room.
Day 4: Remove the buffer, add IRDye 800CW Goat anti-Rabbit IgG Secondary Antibody (1:2000) and CellTag 700 Stain (1:500) in Intercept (PBS) Blocking Buffer. Finally, cell plate is placed in incubator to dry. Image and signal were captured on Odyssey® DLx Imaging System.

T1 sequence (P03372 whole entry): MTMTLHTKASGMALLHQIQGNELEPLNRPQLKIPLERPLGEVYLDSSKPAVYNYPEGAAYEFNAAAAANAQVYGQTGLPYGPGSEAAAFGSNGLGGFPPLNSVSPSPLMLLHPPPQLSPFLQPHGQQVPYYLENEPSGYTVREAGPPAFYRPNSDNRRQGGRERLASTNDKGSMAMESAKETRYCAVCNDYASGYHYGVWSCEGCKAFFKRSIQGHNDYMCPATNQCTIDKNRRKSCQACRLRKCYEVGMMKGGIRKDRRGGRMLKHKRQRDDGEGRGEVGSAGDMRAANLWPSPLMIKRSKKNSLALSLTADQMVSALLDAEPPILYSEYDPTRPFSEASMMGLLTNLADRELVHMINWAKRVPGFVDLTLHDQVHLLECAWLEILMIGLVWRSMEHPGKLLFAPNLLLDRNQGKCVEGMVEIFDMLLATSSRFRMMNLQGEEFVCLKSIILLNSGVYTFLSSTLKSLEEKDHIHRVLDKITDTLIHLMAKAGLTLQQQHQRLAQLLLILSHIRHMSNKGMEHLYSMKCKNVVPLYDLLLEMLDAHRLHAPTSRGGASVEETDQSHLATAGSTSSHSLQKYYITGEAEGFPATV
CRBN/DDB1, sequence (Q96SW2 whole entry): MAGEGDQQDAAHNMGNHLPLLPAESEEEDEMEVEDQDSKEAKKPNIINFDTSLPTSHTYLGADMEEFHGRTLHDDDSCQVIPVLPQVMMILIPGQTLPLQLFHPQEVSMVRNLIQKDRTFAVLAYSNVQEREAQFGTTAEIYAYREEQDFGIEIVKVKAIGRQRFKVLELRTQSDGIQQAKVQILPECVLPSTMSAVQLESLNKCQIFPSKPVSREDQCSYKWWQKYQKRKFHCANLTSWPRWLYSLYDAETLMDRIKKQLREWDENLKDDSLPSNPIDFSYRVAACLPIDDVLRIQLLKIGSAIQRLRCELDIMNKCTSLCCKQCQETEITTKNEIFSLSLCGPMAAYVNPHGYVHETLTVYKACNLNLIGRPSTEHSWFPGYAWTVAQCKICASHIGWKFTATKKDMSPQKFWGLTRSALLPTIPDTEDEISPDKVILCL
CRBN/DDB1, sequence (Q16531 whole entry partner): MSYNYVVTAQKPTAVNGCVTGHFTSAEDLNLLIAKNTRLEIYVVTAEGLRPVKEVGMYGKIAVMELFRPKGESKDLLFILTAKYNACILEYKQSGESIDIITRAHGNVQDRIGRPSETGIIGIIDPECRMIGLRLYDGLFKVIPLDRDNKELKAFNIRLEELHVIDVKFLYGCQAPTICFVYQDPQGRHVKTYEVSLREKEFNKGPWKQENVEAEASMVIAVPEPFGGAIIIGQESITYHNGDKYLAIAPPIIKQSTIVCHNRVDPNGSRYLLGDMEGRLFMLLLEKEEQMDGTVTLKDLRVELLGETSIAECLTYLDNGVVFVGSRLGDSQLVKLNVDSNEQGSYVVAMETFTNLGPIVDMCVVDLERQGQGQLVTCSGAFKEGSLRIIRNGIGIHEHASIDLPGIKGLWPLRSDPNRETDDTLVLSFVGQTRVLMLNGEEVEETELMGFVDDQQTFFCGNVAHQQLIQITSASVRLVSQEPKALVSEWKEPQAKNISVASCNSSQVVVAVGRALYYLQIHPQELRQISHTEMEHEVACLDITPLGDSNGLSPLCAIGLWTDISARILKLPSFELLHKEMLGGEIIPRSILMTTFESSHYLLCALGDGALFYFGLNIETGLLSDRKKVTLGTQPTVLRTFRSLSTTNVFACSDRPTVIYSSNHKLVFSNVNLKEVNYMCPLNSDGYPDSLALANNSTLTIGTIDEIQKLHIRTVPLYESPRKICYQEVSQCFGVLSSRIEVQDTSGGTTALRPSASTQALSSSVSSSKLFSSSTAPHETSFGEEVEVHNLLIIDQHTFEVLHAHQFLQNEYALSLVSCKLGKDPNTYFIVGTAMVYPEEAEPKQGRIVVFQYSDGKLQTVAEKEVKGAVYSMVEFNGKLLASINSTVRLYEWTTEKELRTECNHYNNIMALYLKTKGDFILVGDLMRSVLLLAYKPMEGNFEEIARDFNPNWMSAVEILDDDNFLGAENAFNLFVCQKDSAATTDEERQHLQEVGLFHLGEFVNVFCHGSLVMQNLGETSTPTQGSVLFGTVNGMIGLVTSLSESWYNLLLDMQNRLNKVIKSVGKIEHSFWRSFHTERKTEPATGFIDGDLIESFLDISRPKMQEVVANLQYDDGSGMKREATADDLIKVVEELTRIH

On to `COc1nc(C(=O)NC2CCC(=O)NC2=O)ccc1N1CCN(CC2CCC3(CC2)CN(c2ccc([C@@H]4c5ccc(O)cc5OC[C@@H]4c4ccccc4)cc2)C3)CC1` (single isomer, unassigned) [Compound A108], for which the DC50 at ER [1] is 1 to 10 nM; at ER [2], under 1 nM. Also, the Dmax was 50 to 75% at ER [1], at least 75% at ER [2] and 76.3% at ER [2] (given as number). The IC50 at CRBN/DDB1 fell in the range of 500 to 5000 nM.

As to `O=C1CCC(Nc2ccc3c(c2)OC[C@H]2CN(CC4CCN(c5ccc([C@@H]6c7ccc(O)cc7OC[C@@H]6c6ccccc6)cc5)CC4)CCN32)C(=O)N1` (single isomer, unassigned) [Compound A91, hydrochloride], the 50% degradation concentration (DC50) on ER [1] and at ER [2] was 1 to 10 nM throughout. Also, the half-maximal inhibitory concentration (IC50) at CRBN/DDB1 was over 5000 nM.

Take `O=C1CCN(c2ccc(N3CCC4(CC3)CC(CN3CCN(c5ccc([C@@H]6c7ccc(O)cc7OC[C@@H]6c6ccccc6)cc5)CC3)C4)cc2)C(=O)N1` [Compound A112, 1-(4-(2-((4-(4-((3S,4R)-7-hydroxy-3-phenylchroman-4-yl)phenyl)piperazin-1-yl)methyl)-7-azaspiro[3.5]nonan-7-yl)phenyl)dihydropyrimidine-2,4(1H,3H)-dione]: at ER [1], the DC50 was over 100 nM and the Dmax was under 25%. In addition, at CRBN/DDB1, the IC50 is over 5000 nM. At ER [2], this molecule came in with a DC50 of 1 to 10 nM and a Dmax of under 25%.

In the case of `O=C1CCC(NC(=O)c2ccc(C3CCN(CC4CCN(c5ccc([C@H]6c7ccc(O)cc7OC[C@H]6c6ccccc6)cc5F)CC4)CC3)cn2)C(=O)N1` (single isomer, unassigned) [Compound A101], the IC50 on CRBN/DDB1 was over 5000 nM. At ER [2], this molecule showed a DC50 of under 1 nM and a Dmax of under 25%.

As for `CC(C(=O)N1Cc2cc3c(cc2C1)C(=O)N(C1CCC(=O)NC1=O)C3=O)N1CCC2(CCN(c3ccc([C@H]4c5ccc(O)cc5OC[C@H]4c4ccccc4)cc3)CC2)CC1` (single isomer, unassigned) [Compound A57], at ER [1], the DC50 is over 100 nM and the Dmax is under 25%. In addition, the IC50 at CRBN/DDB1 was over 5000 nM. At ER [2], the DC50 was over 100 nM and the Dmax is under 25%.

Take `O=C1CCC(N2C(=O)c3cc4c(cc3C2=O)CN(C(=O)CN2CCC3(CC2)CCN(c2ccc([C@H]5c6ccc(O)cc6OC[C@H]5c5ccccc5)cc2)CC3)C4)C(=O)N1` (single isomer, unassigned) [Compound A54, formate]: on ER [1], the DC50 was 10 to 100 nM and the Dmax is 25 to 50%. Further, the IC50 on CRBN/DDB1 fell in the range of 500 to 5000 nM. At ER [2], this molecule showed a DC50 of 1 to 10 nM and a Dmax of at least 75%.

For `COc1cc(N2CCC(CN3CCN(c4cnc(C(=O)NC5CCC(=O)NC5=O)cc4OC)CC3)CC2)ccc1[C@H]1c2ccc(O)cc2OC[C@H]1c1ccccc1` (single isomer, unassigned) [Compound A127], the half-maximal degradation concentration (DC50) on ER [1] and at ER [2] was under 1 nM throughout. For the same molecule, the Dmax lay within 50 to 75% on ER [1] and 25 to 50% on ER [2]. Further, the IC50 at CRBN/DDB1 is over 5000 nM.

Turning to `O=C1CCC(Nc2ccc3c(c2)OC[C@H]2CN(CC4CC5(CCN(c6ccc([C@@H]7c8ccc(O)cc8OC[C@@H]7c7ccccc7)cc6)CC5)C4)CCN32)C(=O)N1` (stereo partly drawn) [Compound A94, 3-(((R)-3-((7-(4-((3S,4R)-7-hydroxy-3-phenylchroman-4-yl)phenyl)-7-azaspiro[3.5]nonan-2-yl)methyl)-1,2,3,4,4a,5-hexahydrobenzo[b]pyrazino[1,2-d][1,4]oxazin-8-yl)amino)piperidine-2,6-dione], on CRBN/DDB1, the IC50 is 500 to 5000 nM. Further, on ER [2], the DC50 was 1 to 10 nM and the Dmax is 50 to 75%.

Turning to `COc1cc(N2CCC(CN3CCN4c5ccc6c(c5OC[C@H]4C3)CN(C3CCC(=O)NC3=O)C6=O)CC2)ccc1[C@H]1c2ccc(O)cc2OC[C@H]1c1ccccc1` (stereo partly drawn) [Compound A76, 3-((R)-7-((1-(4-((3R,4S)-7-hydroxy-3-phenylchroman-4-yl)-3-methoxyphenyl)piperidin-4-yl)methyl)-1-oxo-1,3,5,5a,6,7,8,9-octahydro-2H-81pyrazino[1′,2′:4,5][1,4]oxazino[2,3-e]isoindol-2-yl)piperidine-2,6-dione], the IC50 on CRBN/DDB1 lay within 50 to 500 nM. Besides, on ER [2], the half-maximal degradation concentration (DC50) is over 100 nM and the Dmax was under 25%.

Consider `O=C1CCN(c2ccc(N3CCN(CC4CC5(CCN(c6ccc([C@@H]7c8ccc(O)cc8OC[C@@H]7c7ccccc7)cc6)CC5)C4)CC3)cc2)C(=O)N1` (single isomer, unassigned) [Compound A83], for which, on CRBN/DDB1, the 50% inhibitory concentration (IC50) is over 5000 nM. In addition, on ER [2], the DC50 is over 100 nM and the Dmax is under 25%.

Regarding `O=C1CCC(N2C(=O)c3cc4c(cc3C2=O)CN(C(=O)C2CCN(C3CCN(c5ccc([C@H]6c7ccc(O)cc7OC[C@H]6c6ccccc6)cc5)CC3)CC2)C4)C(=O)N1` (single isomer, unassigned) [Compound A78], the IC50 on CRBN/DDB1 was in the range of 500 to 5000 nM. At ER [2], this molecule gave a DC50 of 10 to 100 nM and a Dmax of 25 to 50%.

On ER [1], `COc1cccc([C@@H]2COc3cc(O)ccc3[C@@H]2c2ccc(N3CCC(CN4CCN5c6ccc7c(c6OC[C@H]5C4)CN(C4CCC(=O)NC4=O)C7=O)CC3)cc2)c1` (single isomer, unassigned) [Compound A34] returned a DC50 of 1 to 10 nM and a Dmax of 25 to 50%. Moreover, the IC50 on CRBN/DDB1 was 50 to 500 nM.

Take `Cc1nn(C2CCC(=O)NC2=O)c2ccc(N3CCN(CC4CC5(CCN(c6ccc([C@H]7c8ccc(O)cc8OC[C@H]7c7ccccc7)cc6)CC5)C4)CC3)cc12` (single isomer, unassigned) [Compound A17]: on ER [1], the DC50 was under 1 nM and the maximal degradation (Dmax) lay in the range of 50 to 75%. Besides, the IC50 on CRBN/DDB1 was 50 to 500 nM.

`O=C1CCC(N2Cc3cc4c(cc3C2=O)CN(C(=O)C2CCN(C3CCN(c5ccc([C@H]6c7ccc(O)cc7OC[C@H]6c6ccccc6)cc5)CC3)CC2)C4)C(=O)N1` (single isomer, unassigned) [Compound A80]: the IC50 at CRBN/DDB1 is 500 to 5000 nM. At ER [2], this molecule displayed a DC50 of 10 to 100 nM and a Dmax of 50 to 75%.

For `O=C1CCN(c2ccc(N3CCN(CC4CCN(c5ccc([C@@H]6c7ccc(O)cc7OC[C@@H]6c6ccccc6)cc5)CC4)CC3)cc2)C(=O)N1` (single isomer, unassigned) [Compound A82], the IC50 at CRBN/DDB1 fell in the range of 500 to 5000 nM. On ER [2], this molecule showed a half-maximal degradation concentration (DC50) of 1 to 10 nM and a Dmax of 25 to 50%.

For the molecule `O=C1CCN(c2ccc(N3CCC(CN4CC5(CCN(c6ccc([C@@H]7c8ccc(O)cc8OC[C@@H]7c7ccccc7)cc6)CC5)C4)CC3)cc2)C(=O)N1` (single isomer, unassigned) [Compound A87], the IC50 at CRBN/DDB1 is over 5000 nM. Besides, on ER [2], the half-maximal degradation concentration (DC50) fell in the range of 1 to 10 nM and the greatest degradation seen (Dmax) is 25 to 50%.

Consider `COc1nc(C(=O)NC2CCC(=O)NC2=O)ccc1N1CCN(CC2CC3(CCN(c4ccc([C@H]5c6ccc(O)cc6OC[C@H]5c5ccccc5)cc4)CC3)C2)CC1` (single isomer, unassigned) [Compound A97], for which the concentration for half-maximal inhibition (IC50) at CRBN/DDB1 lay within 500 to 5000 nM. Besides, at ER [2], the DC50 was under 1 nM and the Dmax was in the range of 25 to 50%.

At ER [1], `O=C1CCC(N2C(=O)c3cc4c(cc3C2=O)CN(CC(=O)N2CC3(CCN(c5ccc([C@H]6c7ccc(O)cc7OC[C@H]6c6ccccc6)cc5)CC3)C2)C4)C(=O)N1` (single isomer, unassigned) [Compound A39] returned a DC50 of over 100 nM and a Dmax of under 25%. In addition, at CRBN/DDB1, the IC50 was 50 to 500 nM.
